Reference: patent publication US8008452B2, “Phosphorylated Ndr kinase” (Novartis Forschungesstiftung, Zweigniederlassung Friedrich …, priority 2002, dated 2011)
“Also recorded” adds a separate entry of the source.

Legend:
myc-hMOB1 = test: Co-immunoprecipitation of HA-NDR and myc-hMOB1 from COS-1 cells; assay type: binding, human; details: COS1 cells cotransfected with HA-NDR and myc-hMOB1
Procedure: HA-tagged hNDR and myc-tagged hMOB1 were cotransfected in COS1 cells, which were stimulated with okadaic acid or solvent alone. After cell lysis and extract preparation, HA-NDR was immunoprecipitated and co-immunoprecipitated myc-hMOB1 detected or Myc-hMOB1 was immunoprecipitated and co-immunoprecipitated HA-NDR detected.
HA-NDR, wt and mutants, and myc-hMOB1 were cotransfected into COS-1 cells and the cells were treated with OA prior to lysis. HA-NDR was immunoprecipitated and the coimmunoprecipitated myc-hMOB1 detected. […] Furthermore, the two important in vivo phosphorylation sites of NDR, serine-281 in the activation segment and the hydrophobic motif site threonine-444 in the C-terminal regulatory domain were tested, as well as the threonine 74 site in the N-terminal regulatory domain, for their role in NDR-MOB interaction.
HA-NDR N-terminal point mutants and myc-mob1 were co-transfected into COS1 cells which were treated with OA prior to lysis. HA-NDR mutants were immunoprecipitated and coimmunoprecipitated myc-hMOB1 detected.
In this Example, the effect of treatment of COS1 cells with BAPTA-AM on the NDR-MOB Interaction was determined. HA-NDR and myc-MOB1 was cotransfected into COS1 cells and the cells were treated with BAPTA-AM and OA or the solvents alone prior to lysis. HA-NDR was immunoprecipitated and co-immunoprecipitated myc-MOB1 detected. The kinase activity of the HA-NDR immunoprecipitates was measured in a peptide kinase assay.

HA-NDR1 [1] = test: HA-NDR1 kinase assay on 12CA5 immunoprecipitates from transfected, treated COS-1 cells; assay type: cell-based, human
Procedure: In some experiments, the cells were treated for 60 min with 1 microM okadaic acid in 0.1% N,N-dimethylformamide (DMF) (Alexis Corp.), 50 microM BAPTA-AM (1,2-bis (o-aminophenoxy) ethane-N,N,N′,N′-tetraacetic acid tetra (acetoxy-methyl)ester) in 0.1% diimethylsulfoxide (DMSO; Sigma), or 20 microM thapsigargin in 0.1% DMSO (Alomone) 24 hours after transfection.
Transfected and treated COS-1 cells were washed once with ice-cold PBS, and harvested by rubber policeman in 1 ml ice-cold PBS containing 1 mM Na3VO4 and 20 mM beta-glycerophosphate before lysis in 500 microliters of IP buffer (20 mM Tris-HCl pH 8.0, 150 mM NaCl, 1% Nonidet P-40, 10% glycerol, 1 mM Na3VO4, 20 mM beta-glycerolphosphate, 1 microM microcystin-LR, 50 mM NaF, 0.5 mM PMSF, 4 microM leupeptin, 1 mM benzamidine, and 1 tablet/10 ml IP of Complete protease inhibitors (Roche)). Lysates were centrifuged at 20 000 g for 20 min and triplicate aliquots (200 microg) of supernatant were precleared with protein A-Sepharose (Amersham Pharmacia Biotech) for 60 min and mixed subsequently for 3 h at 4° C. with 12CA5 antibody prebound to protein A-Sepharose (˜1 microg antibody bound to 2 microl beads). The beads were then washed twice with IP buffer, once for 10 min with IP buffer containing 1 M NaCl, once again for 10 min with IP buffer, and finally twice with 20 mM Tris-HCl pH 7.5 containing 4 microM leupeptin and 1 mM benzamidine. Thereafter, beads were resuspended in 30 microliters buffer containing 20 mM Tris-HCl pH 7.5, 10 mM MgCl2, 1 mM DTT, 100 microM [gamma-^32P]ATP (˜0.1 microCi/microliter), 1 microM cAMP-dependent protein kinase inhibitor peptide PKI (Bachem), 4 microM leupeptin, 1 mM benzamidine, 1 microM microcystin-LR, and 1 mM NDR1 substrate peptide ([…]). After 60 min incubation at 30° C., 15 microliters of supernatant were removed, and phosphate incorporation into the substrate peptide determined as described for GST-NDR1 above.
COS-1 cells expressing either wild type HA-NDR1 or the indicated mutants were treated for 1 h with 1 microM okadaic acid or with solvent alone. HA-tagged NDR kinase variants were then immunoprecipitated (out of 100 microgram of detergent extracts) with 12CA5 monoclonal antibody and assayed for kinase activity by a peptide kinase assay as described above.
Mock-transfected or HA-NDR1-expressing COS-1 cells were treated for 1 h with […], 50 microM BAPTA-AM, and […] or with solvent (0.1% DMF or 0.1% DMSO) alone. 12CA5 immunoprecipitates (out of 100 microgram protein extract) were then assayed using the peptide kinase assay for NDR1 kinase activity.
To test whether hMOB1 plays a role in NDR activation, myc-hMOB1 or the empty vector was cotransfected with HA-NDR1 in COS1 cells and treated with OA. 12CA5 immunoprecipitates were then assayed using the peptide kinase assay for HA-NDR kinase activity. […] GST-MOB and GST respectively was added to immunoprecipitated HA-NDR and kinase reaction were performed. The reactions were resolved on a 10% SDS PAGE and the radioactivity visualised by using a phosphoimager.

HA-NDR1 [2] = test: as above; assay type: cell-based, human; set-up: dose or concentration left out as unconfirmed
HA-NDR1 [3] = test: Immunodetection of HA-NDR1 phosphorylated on Ser281 or Thr444 from COS-1 cells; assay type: cell-based, human; details: for phosphorylation of HA-NDR1 on Ser281: immunoblot with anti-P-S281; for phosphorylation of HA-NDR1 on Thr444: immunoblot with anti-P-T444
Procedure: Either 1 microgram GST-NDR1 or HA-NDR1 immunoprecipitated from 100 microgram COS-1 detergent extracts as described above was separated on 10% SDS-PAGE and immunoblotted 2 h at RT or overnight at 4° C. with anti-Ser281P antisera (1:1000) in the presence of 50 microg/ml competing unphosphopeptide or anti-Thr444P purified antibody (1:500). Both antibodies were detected with horseradish peroxidase-conjugated donkey anti-rabbit Ig antibody (Amersham biosciences) and developed by ECL (chemiluminescence; Amersham Pharmacia Biotech).
To examine this possibility, extracts from transfected COS-1 cells were analyzed with the anti-Ser281P and anti-Thr444P antisera. Protein extracts (10 microg) from transfected COS-1 cells were immunoblotted with 12CA5 to verify similar expression levels of each HA-NDR1 construct. For the analysis of phosphorylation status, 12CA5-immunoprecipitated HA-NDR1 variants (out of 100 microg protein extract) were analysed by immunoblotting with phosphospecific antibodies directed against P-S281 or P-T444.
Protein extracts (10 microg) from mock- and HA-NDR1-transfected COS-1 cells were also immunoblotted with 12CA5 to verify equal expression levels of HA-NDR1 construct. For the analysis of phosphorylation status, 12CA5-immunoprecipitated HA-NDR1 (out of 100 microgram protein extract) was analysed by immunoblotting with phosphospecific antibodies directed against P-S281 or P-T444.

HA-NDR2 = HA-NDR2 protein kinase activity after cell treatment with okadaic acid or solvent; assay type: cell-based, human; details: for activation of NDR2 mutant by OA: cell treatment with OA; for basal kinase activity of NDR2 mutant: solvent alone, compared with HA-NDR2-WT
Procedure: All other procedures (including bacterial expression, kinase assays, immunodetection and mass spectrometry) were carried out essentially as described in the Methodology section above.
To further examine this NDR2 mutants were created in which either Ser-282 or Thr-442 were replaced by an alanine. Additionally an in vitro phosphorylation site mutant T75A essentially as described above, and a kinase dead mutant K119A was created for Ndr2. The protein kinase activity of each of these mutants was measured following cell treatment with okadaic acid (OA) or solvent alone. HA-NDR2-WT was potently stimulated (˜10-fold) by OA.

NDR2 = test: Western blot of NDR2 variants with phosphorylation site specific antibodies; assay type: cell-based, human
From the text: This was described above for the corresponding mutants of NDR1.

Molecule | effect of cell treatment on NDR-MOB interaction (myc-hMOB1) | Spec. Activity (NDR1 kinase activity) (HA-NDR1 [1]) | effect on okadaic acid-stimulated NDR1 activity (HA-NDR1 [2]) | phosphorylation of HA-NDR1 on Ser281 (HA-NDR1 [3]) | phosphorylation of HA-NDR1 on Thr444 (HA-NDR1 [3]) | stimulation of HA-NDR2-WT kinase activity (HA-NDR2; cell treatment with OA versus solvent alone) [fold] | activation of NDR2 mutant by OA (HA-NDR2) | basal kinase activity of NDR2 mutant (HA-NDR2) | phosphorylation of NDR2 on Ser282 (NDR2) | phosphorylation of NDR2 on T442 upon OA treatment (NDR2) | increase of Ser282 phosphorylation after OA treatment (NDR2)
CC(=O)OCOC(=O)CN(CC(=O)OCOC(C)=O)c1ccccc1OCCOc1ccccc1N(CC(=O)OCOC(C)=O)CC(=O)OCOC(C)=O [BAPTA-AM, 1,2-bis (o-aminophenoxy) ethane-N,N,N′,N′-tetraacetic acid tetra (acetoxy-methyl)ester] | reduction of the NDR-MOB interaction | 0.2676 | dramatically reduced; also recorded: reduces OA induced NDR kinase activation | declined almost to the baseline | declined almost to the baseline |  |  |  |  |  | 
C=C1[C@@H](O)[C@@H]2O[C@]3(CC[C@H](/C=C/[C@@H](C)[C@@H]4CC(C)=C[C@@]5(O[C@H](C[C@@](C)(O)C(=O)O)CC[C@H]5O)O4)O3)CC[C@H]2O[C@@H]1[C@@H](O)C[C@H](C)[C@H]1O[C@@]2(CCCCO2)CC[C@H]1C [okadaic acid, reference compound] | dependent on stimulation of the cells with OA | 10.142 |  | further enhanced | only became phosphorylated after okadaic acid treatment | ~10 |  |  |  |  | 
C/C=C(/C)C(=O)O[C@H]1C(C)=C2[C@H]([C@@H]1OC(=O)CCCCCCC)[C@@](C)(OC(C)=O)C[C@H](OC(=O)CCC)[C@@]1(O)[C@H]2OC(=O)[C@@]1(C)O [thapsigargin] |  |  | rescued | rescued | rescued |  |  |  |  |  | 
K119A: NDR2 kinase dead mutant K119A |  |  |  |  |  |  | didn't show any activation by OA | nearly undetectable levels | not phosphorylated on S282 | becomes phosphorylated upon OA treatment | 
NDR2 wt: human NDR2 wild type (SEQ ID NO:3), HA-tagged |  |  |  |  |  |  |  |  | becomes phosphorylated on Ser282 | becomes phosphorylated upon OA treatment | increased after OA treatment
S282A: NDR2 mutant, Ser-282 replaced by alanine |  |  |  |  |  |  | still activated | markedly reduced basal activity |  | becomes phosphorylated upon OA treatment | 
T75A: NDR2 in vitro phosphorylation site mutant T75A |  |  |  |  |  |  | still activated | markedly reduced basal activity | becomes phosphorylated on Ser282 | becomes phosphorylated upon OA treatment | 
T442A: NDR2 mutant, Thr-442 replaced by alanine |  |  |  |  |  |  | still activated | markedly reduced basal activity | becomes phosphorylated on Ser282 |  | increased after OA treatment
